Laboratory results published in US20250049713A1, “LIPID NANOPARTICLES FOR DELIVERY OF AGENTS” (Massachusetts Institute of Technology, priority 2023, published 2025).

System: VE-cadherin (Cdh5) mRNA
Assay: In vivo endothelial Cdh5 gene silencing after intravenous siCdh5 LNP, tissue mRNA by RT-qPCR
Design: species or system mice
Settings: for RNA delivery to endothelial cells vs DOTAP and EDMPC: formulation screening, summary statement
Description: Cadherin (Cdh5), also known as vascular endothelial cadherin (VE-cadherin) is a useful target gene to evaluate endothelial cell siRNA delivery in that Cdh5 expression is strictly limited to endothelial cells. By quantifying Cdh5 mRNA remaining in the tissues after siCdh5 administration, RNA delivery efficiency to endothelial cells can be evaluated.
Animal Experiments: All animal studies were approved by the MIT Institutional Animal Care and Use Committee (CAC) and were consistent with local, state, and federal regulations as applicable. All experimental procedures were performed with ethical compliance and approval under the guidelines for Division of Comparative Medicine by Massachusetts Institute of Technology. Female C57BL/6 mice (6 weeks) were obtained from Jackson Laboratory, housed in an MIT animal facility, and acclimated for at least 3 days before the initiation of a study.
For intravenous administration, siRNA-lipid nanoparticles diluted in PBS were injected […] using 29 g, 3/10 cc insulin syringes (BD Biosciences) after gentle warming of the animals using a heat lamp. For intramuscular administration, siRNA-lipid nanoparticles diluted in PBS were injected […] using 29 g, 3/10 cc insulin syringes (BD Biosciences).
48-72 hours after injection, organs or tissues including the heart, liver, spleen, lung, kidneys, muscle (quadriceps), and brain were collected and soaked in RNAlater solution (Thermo Fisher) for 12-48 hours at 4° C. and stored at −20° C. after the removal of RNAlater.
Tissue mRNA Quantification by RT-qPCR: Total RNA was isolated from tissues using the TRIzol (Thermo Fisher) and Direct-zol-96 MagBead (Zymo Research), or Quick-RNA MagBead (Zymo Research). Briefly, tissue punches were placed in a deep-well 96 well plate with 4-mm stainless beads and lysed with 350 μL TRIzol, or 250 μL DNA/RNA Shield (Zymo Reaearch) using a GenoGrinder2010. Total RNA was further purified using Direct-zol-96 MagBead (Zymo Research) or Quick-RNA MagBead (Zymo Research) according to the manufacturer's protocol.
cDNA was synthesized using ABI High Capacity cDNA Reverse Transcription Kit (Applied Biosystems #4368814) according to manufacturer instructions. Briefly, 5 μl of a master mix containing 1 μl 10X Buffer, 0.4 μl 25X dNTPs, 1 μl 10X Random primers, 0.5 μl Reverse Transcriptase, and 2.1 μl of water per reaction was added to 5 μl total RNA solution that was isolated using the above protocol. Plates were sealed, mixed, and incubated on a thermal cycler for 10 minutes at 25° C., followed by 2 hours at 37° C. and 5 minutes at 85° C.
Gene expression was analyzed in qPCR with Luna® Universal Probe RT-qPCR Kit (NEB) and Taqman probes-Cdh5 (Mm00486938_m1), and Gusb (Mm01197698_m1) or B2m (Mm00437762_m1). Samples were amplified using a LightCycler 480 qPCR machine (Roche). Cdh5 expression was normalized to B2m or Gusb.

[1] = Example 3: 20% cationic lipid LNPs, siCdh5 0.5 mg/kg i.v.

SMILES | delivery to endothelial cells among screened cationic lipids [1] | RNA delivery to endothelial cells vs DOTAP and EDMPC | endothelial delivery, DPTAP (16:0 TAP) vs DSTAP (18:0 TAP) [1] | endothelial delivery, EDMPC (14:0 EPC) vs EDLPC (12:0 EPC) [1]
CCCCCCCCCCCCCC(=O)OCCN(CCOC(=O)CCCCCCCCCCCCC)C(=O)C[N+](C)(C)C [DC-6-14, O,O′-ditetradecanoyl-N-(a-trimethylammonioacetyl) diethanolamine] | most efficacious delivery to endothelial cells | much more efficiently | – | –
CCCCCCCCCCCCCCCC(=O)OC[C@H](COP(=O)(OCC)OCC[N+](C)(C)C)OC(=O)CCCCCCCCCCCCCCC (some centres unmarked) [EDPPC, 1,2-dipalmitoyl-sn-glycero-3-ethylphosphocholine] | most efficacious delivery to endothelial cells | much more efficiently | – | –
CCCCCCCCCCCCCCCC(=O)OCC(C[N+](C)(C)C)OC(=O)CCCCCCCCCCCCCCC (centres unmarked) [DPTAP, 1,2-dipalmitoyl-3-trimethylammonium-propane] | most efficacious delivery to endothelial cells | much more efficiently | significantly more efficient endothelial delivery | –
CCCCCCCCCCCCCC(=O)OC[C@H](COP(=O)(OCC)OCC[N+](C)(C)C)OC(=O)CCCCCCCCCCCCC (some centres unmarked) [EDMPC, 1,2-dimyristoyl-sn-glycero-3-ethylphosphocholine] | – | – | – | more efficient endothelial delivery
